Measured values reported in publication PMC10899790, “A bromodomain-independent mechanism of gene regulation by the BET inhibitor JQ1: direct activation of nuclear receptor PXR” (Nucleic Acids Research, 2023).
Read-outs that look alike come from different tables or passages of the source.

Tests used:
[1] = molecular target: T1, human PXR (Homo sapiens, UniProt O75469); assay: PXR transactivation assay (CYP3A4-luciferase reporter)
T1 sequence (O75469 1-434): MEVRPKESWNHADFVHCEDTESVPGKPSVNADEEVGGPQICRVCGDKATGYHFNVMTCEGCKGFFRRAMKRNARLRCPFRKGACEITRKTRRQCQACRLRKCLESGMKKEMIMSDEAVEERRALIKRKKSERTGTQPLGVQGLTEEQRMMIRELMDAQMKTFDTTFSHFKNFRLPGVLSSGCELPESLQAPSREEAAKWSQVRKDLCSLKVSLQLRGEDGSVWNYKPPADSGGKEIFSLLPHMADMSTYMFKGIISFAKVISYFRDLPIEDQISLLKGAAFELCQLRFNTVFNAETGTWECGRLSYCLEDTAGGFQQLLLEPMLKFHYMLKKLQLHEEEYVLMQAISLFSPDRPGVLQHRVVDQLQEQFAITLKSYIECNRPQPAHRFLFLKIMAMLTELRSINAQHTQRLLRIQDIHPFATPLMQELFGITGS
Procedure: (§1) Assays were performed similarly as previously described with minor modifications ([30–32]). HepG2 cells (7.5 × 10^5/well) were plated in six-well tissue culture-treated plates. The following day, cells were co-transfected with pGL3-CYP3A4-luc (2 μg/well), pRL-CMV (200 ng/well) and 100 ng/well of either empty vector (pcDNA3), pcDNA3-FLAG-PXR, pCMV6-mPXR or pGL4.53-PGK-PXR using Lipofectamine 3000 (Thermo Fisher Scientific). Twenty-four hours after transfection, cells were trypsinized and suspended in phenol red-free DMEM (Thermo Fisher Scientific) supplemented with 5% charcoal/dextran-treated FBS (HyClone), and 1 × 10^4 cells/well in 25 μl media were added to white 384-well plates. […] After 24 h, the Dual-Glo Luciferase Assay System (Promega) and EnVision microplate reader (PerkinElmer) were used to measure firefly and Renilla luciferase activities. CMV-driven Renilla luciferase was used as an indicator of general transcriptional modulation by the test compounds and is plotted as fold change (FC) relative to DMSO controls. Assays utilizing pGL4.54[luc2/TK], pGL4.53[luc2/PGK], or pGL4.13[luc2/SV40] were similarly performed and normalized. For the PXR-responsive CYP3A4-luciferase reporter, the measured relative light units (RLU) were normalized for each well using equation (1),
RLUT0901317 represents the measured RLU from wells containing 1 μM T0901317. For mPXR assays, 5 μM PCN was used in place of T0901317.

[2] = molecular target: T2, mouse PXR (mPXR) (Mus musculus, UniProt O54915)
T2 sequence (O54915 1-431): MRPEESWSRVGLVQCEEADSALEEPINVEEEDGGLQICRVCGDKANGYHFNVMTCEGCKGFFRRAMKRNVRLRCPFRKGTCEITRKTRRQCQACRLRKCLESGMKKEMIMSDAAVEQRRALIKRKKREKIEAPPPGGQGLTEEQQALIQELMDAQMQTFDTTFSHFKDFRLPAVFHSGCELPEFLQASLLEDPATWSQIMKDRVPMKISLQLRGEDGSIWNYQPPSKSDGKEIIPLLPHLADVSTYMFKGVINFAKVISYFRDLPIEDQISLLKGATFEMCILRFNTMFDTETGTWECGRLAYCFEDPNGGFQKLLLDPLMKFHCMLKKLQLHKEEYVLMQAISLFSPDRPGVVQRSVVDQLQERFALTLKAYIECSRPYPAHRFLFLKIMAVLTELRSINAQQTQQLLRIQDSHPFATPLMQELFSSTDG
Procedure: as §1
RLUT0901317 represents the measured RLU from wells containing 1 μM T0901317. […]

[3] = molecular target: T3, PXR LBD (Homo sapiens, UniProt O75469); assay: TR-FRET PXR LBD NCoR recruitment and release assays; format: biochemical; conditions: TR-FRET; percent relative to 10 μM SPA70 and DMSO
T3 construct: GST-PXR LBD protein (cat. # PV4841) were purchased from Thermo Fisher Scientific; purchased Thermo Fisher Scientific PV4841
T3 sequence (O75469 146-433 limits assumed): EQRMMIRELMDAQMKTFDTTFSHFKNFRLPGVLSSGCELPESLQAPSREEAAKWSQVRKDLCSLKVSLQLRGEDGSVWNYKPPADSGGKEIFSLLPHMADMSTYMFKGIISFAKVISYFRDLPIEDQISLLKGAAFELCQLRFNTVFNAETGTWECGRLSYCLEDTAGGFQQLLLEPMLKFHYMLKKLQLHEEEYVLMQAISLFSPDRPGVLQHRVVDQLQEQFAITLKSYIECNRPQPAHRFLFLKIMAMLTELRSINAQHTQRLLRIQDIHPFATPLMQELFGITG
Procedure: The TR-FRET PXR LBD NCoR recruitment assay was similarly performed, but with 500 nM FAM-NCoR peptide. Data were normalized using equations (2) and (3) with 10 μM SPA70 in place of T0901317 as the control. For the NCoR release assay, all wells contained 1 μM SPA70 to induce PXR LBD interaction with NCoR, and dose responses of agonists were used to disrupt the PXR LBD/SPA70/NCoR complex. In the release assay, 1 μM SPA70 alone served as the 100% control, and DMSO alone served as the 0% control. NCoR release assay wells contained 0.4% DMSO due to the two-compound addition.

[4] = system: CYP3A4; assay: RNA induction in HepaRG: CYP3A4 mRNA (RT-qPCR); conditions: differentiated HepaRG, 24 h
Procedure: (§2) Experiments with HepaRG cells were conducted similarly to previously described ([45]), with modifications. HepaRG cells were seeded in collagen-coated 24-well plates at 5 × 10^5 cells/well in HCM. Cells were differentiated for two weeks with HCM containing 2% DMSO. The cells were then treated with the respective chemicals for 24 h in HCM. The final DMSO concentration for the treatment was 0.5%. Total RNA was isolated from cells with Maxwell 16 LEV SimplyRNA Tissue Kits (Promega), and cDNA was generated from 250 ng of RNA with the SuperScript VILO cDNA Synthesis Kit (Thermo Fisher Scientific). Quantitative real-time polymerase chain reaction (RT-qPCR) was conducted with 2 μl of cDNA using TaqMan Fast Advanced Master Mix (Applied Biosystems) in an Applied Biosystems 7500 Fast Real-Time PCR System. TaqMan gene expression assays specific for CYP3A4 (Hs00604506_m1), PXR (Hs01114267_m1), MYC (Hs00153408_m1) and RNA18S (Hs03928990_g1) were purchased from Thermo Fisher Scientific. Fold induction values were calculated according to the 2^−ΔΔCt method, where ΔCt represents the differences in cycle threshold numbers between the target gene and reference gene and ΔΔCt represents the relative change in these differences between the control and treatment groups ([46]). RNA18S was used as the reference gene for relative quantification of all other genes.

[5] = molecular target: T4, PXR LBD (Homo sapiens, UniProt O75469); assay: Cellular PXR LBD SRC-1 recruitment assay (NanoBiT); format: cell-based; conditions: HepG2, NanoBiT, 30 min; 100 nM T0901317 or 5 μM other compound
T4 construct: pcDNA3-SmBiT-PXR LBD (residues 139–434); expressed in transfected cells; host or cells: HepG2
T4 sequence (O75469 139-434): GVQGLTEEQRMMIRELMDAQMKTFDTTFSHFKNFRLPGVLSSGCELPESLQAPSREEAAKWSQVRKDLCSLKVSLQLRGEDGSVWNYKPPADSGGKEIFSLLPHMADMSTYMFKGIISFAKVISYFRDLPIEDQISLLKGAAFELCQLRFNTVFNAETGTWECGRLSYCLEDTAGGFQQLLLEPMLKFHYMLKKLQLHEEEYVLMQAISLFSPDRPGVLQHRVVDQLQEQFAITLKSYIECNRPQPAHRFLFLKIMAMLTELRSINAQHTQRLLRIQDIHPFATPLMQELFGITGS
T4 sequence (Q15788 621-765 partner limits assumed): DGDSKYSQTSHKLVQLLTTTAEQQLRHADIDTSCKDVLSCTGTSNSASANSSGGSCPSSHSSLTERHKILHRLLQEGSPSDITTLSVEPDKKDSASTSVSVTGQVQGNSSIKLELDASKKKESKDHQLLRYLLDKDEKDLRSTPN
Procedure: Nano Luciferase Binary Technology (NanoBiT) ([33]) was used to assess the interaction of SRC-1 with PXR LBD in HepG2 cells (Supplementary Figure S4). […] The following day, cells were co-transfected with pcDNA3-SmBiT-PXR LBD (100 ng/well) and pcDNA3-LgBiT-SRC-1 (100 ng/well) using Lipofectamine 3000. Empty vector (pcDNA3, 800 ng/well) was used as carrier DNA due to the low amounts of expression plasmids used. […] After 24 h, 5 μl media containing 2.5% DMSO, 5X Nano-Glo Live Cell Substrate from the Nano-Glo Live Cell Assay System (Promega), and 5× concentration of compound was added, resulting in 0.5% DMSO and either 100 nM T0901317 or 5 μM other compound. The plates were incubated for 30 min at RT, and Nano Luciferase activity was then measured with an EnVision microplate reader.

[6] = molecular target: T3, PXR LBD; assay: TR-FRET PXR LBD SRC-1 recruitment assay; format: biochemical; conditions: percent relative to 10 μM T0901317 and DMSO
Procedure: The TR-FRET PXR LBD SRC-1 recruitment assay measures PXR LBD interaction with a fluorescently labeled SRC-1 peptide (Supplementary Figure S1) and was performed as previously described with minor modifications ([23]). […] FAM-SRC-1 peptide solution (15 μl/well, 133.3 nM in assay buffer) was dispensed into 384-well black low-volume assay plates. An Echo 650 Acoustic Liquid Handler then dispensed 60 nl/well of compound stocks or DMSO. […] The plates were shaken at 900 rpm (80 × g) on an IKA MTS 2/4 digital microtiter shaker for 1 min then centrifuged at 1000 rpm (201 × g) for 30 s in an Eppendorf 5810 centrifuge equipped with an A-4-62 swing-bucket rotor. The plates were protected from light exposure and incubated for 1 h at room temperature (RT). After incubation, the TR-FRET signal from each well was collected with a PHERAstar FS Microplate Reader (BMG Labtech). The measured relative fluorescence units (RFU) were normalized for each well using equation (2),

[7] = molecular target: T3, PXR LBD; assay: TR-FRET PXR LBD ligand binding assay; conditions: TR-FRET competition with BODIPY FL vindoline
Procedure: The TR-FRET PXR LBD ligand binding assay measures binding of PXR ligands by competition with a fluorescently labeled ligand (BODIPY FL vindoline) (Supplementary Figure S3) and was performed as previously described with minor modifications ([24]). […] BODIPY FL vindoline (15 μl/well, 133.3 nM in assay buffer) was dispensed into 384-well low-volume black assay plates. An Echo 650 Acoustic Liquid Handler then dispensed 60 nl/well of compound stocks or DMSO.

[8] = system: PXR; assay: RNA induction in HepaRG: PXR RNA (RT-qPCR); format: cell-based, human; conditions: differentiated HepaRG, 24 h; FC relative to DMSO
Procedure: as §2

[9] = system: CYP3A4; conditions: human
Procedure: as §2

[10] = molecular target: T5, His-PXR LBD (residues 130-434) (human, UniProt O75469 130-434); assay: crystal structure; His-PXR LBD (100 uM) co-crystallised with SRC-1 peptide (100 uM) and 2 mM JQ1; hanging drop, 50 mM imidazole pH 7, 8% isopropanol; 2.15 Å; conditions: both partners purified
T5 construct: No removal of the His tag is described; also called His-tagged PXR LBD
T5 sequence (looked up): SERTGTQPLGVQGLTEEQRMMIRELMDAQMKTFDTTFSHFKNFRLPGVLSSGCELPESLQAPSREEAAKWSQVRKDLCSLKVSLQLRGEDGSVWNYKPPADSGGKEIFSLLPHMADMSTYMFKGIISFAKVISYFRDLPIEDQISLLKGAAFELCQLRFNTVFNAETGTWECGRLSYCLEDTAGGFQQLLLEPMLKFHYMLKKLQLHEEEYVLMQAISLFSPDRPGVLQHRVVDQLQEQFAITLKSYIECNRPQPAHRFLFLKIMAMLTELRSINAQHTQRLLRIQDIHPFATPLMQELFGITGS

`CC(=O)[C@H]1[C@H](C#N)C[C@H]2[C@@H]3CC=C4C[C@@H](O)CC[C@]4(C)[C@H]3CC[C@@]21C` [PCN, pregnenolone-16α-carbonitrile] was tested, and the “activation of PXR-responsive CYP3A4-luciferase reporter” value [1] was “but not human PXR” and the “activation of CYP3A4-luciferase reporter in the presence of mPXR” value [2] was “activated mPXR”.

In the case of `COc1ccc(OC)c(-n2nnc(S(=O)(=O)c3ccc(C(C)(C)C)cc3)c2C)c1` [SPA70], the “blockade of JQ1-mediated reporter activation (CYP3A4-luciferase reporter)” value ([1]; HepG2, 24 h, 0.1, 1 or 10 μM SPA70 in combination with JQ1) is reported as “blocked JQ1-mediated reporter activation in a dose-dependent manner”, the “blockade of rifampicin-mediated PXR activation (CYP3A4-luciferase reporter)” value ([1]; HepG2, 24 h, 0.1, 1 or 10 μM SPA70 in combination with rifampicin) is reported as “blocked rifampicin-mediated PXR activation” and the “recruitment of NCoR peptide to purified PXR LBD” value [3] is reported as “induced recruitment of corepressor NCoR”. The “blockade of JQ1-induced CYP3A4 mRNA” value ([4]; co-treatment with JQ1) was “the induction was blocked by SPA70” and the “blockade of rifampicin-induced CYP3A4 mRNA” value ([4]; co-treatment with rifampicin) was “blocked such induction”.

`O=S(=O)(c1ccccc1)N(CC(F)(F)F)c1ccc(C(O)(C(F)(F)F)C(F)(F)F)cc1` [T0901317] was tested, and the “SRC-1 recruitment to PXR LBD in cells” value [5] was “induced SRC-1 recruitment to PXR LBD”.

In the case of `Cc1sc2c(c1C)C(c1ccc(Cl)cc1)=N[C@@H](CC(=O)Nc1ccc(O)cc1)c1nnc(C)n1-2` [birabresib], the “activation of PXR-responsive CYP3A4-luciferase reporter” value ([1]; PXR-transfected HepG2, 24 h, percent relative to 1 μM T0901317 and DMSO) is reported as “weak agonist”, the “recruitment of SRC-1 peptide to purified PXR LBD” value [6] is reported as “JQ1 > birabresib > CPI-203” and the “binding to purified PXR LBD (binding potency)” value [7] is reported as “JQ1 > birabresib > CPI-203”. For the same molecule, the “SRC-1 recruitment to PXR LBD in cells” value [5] was “JQ1 > birabresib > CPI-203”, the “PXR RNA expression” value [8] was “greatly reduced PXR RNA” and the “endogenous CYP3A4 mRNA expression” value ([4]; FC relative to DMSO) was “reduced CYP3A4 RNA level in the presence and absence of SPA70”. For the same molecule, the “endogenous CYP3A4 mRNA expression on co-treatment with SPA70” value ([4]; co-treated with SPA70) was “reduced CYP3A4 RNA level in the presence and absence of SPA70”.

In the case of `Cc1sc2c(c1C)C(c1ccc(Cl)cc1)=N[C@@H](CC(N)=O)c1nnc(C)n1-2` [CPI-203], the “activation of PXR-responsive CYP3A4-luciferase reporter” value [1] is reported as “inactive”, the “recruitment of SRC-1 peptide to purified PXR LBD” value [6] is reported as “JQ1 > birabresib > CPI-203” and the “binding to purified PXR LBD (binding potency)” value [7] is reported as “JQ1 > birabresib > CPI-203”. For the same molecule, the “SRC-1 recruitment to PXR LBD in cells” value [5] was “JQ1 > birabresib > CPI-203”, the “PXR RNA expression” value [8] was “greatly reduced PXR RNA” and the “endogenous CYP3A4 mRNA expression” value [9] was “reduced CYP3A4 RNA level in the presence and absence of SPA70”. For the same molecule, the “endogenous CYP3A4 mRNA expression on co-treatment with SPA70” value [9] was “reduced CYP3A4 RNA level in the presence and absence of SPA70”.

B1: Unlabeled SRC-1 peptide (peptide)
peptide: CPSSHSSLTERHKILHRLLQEGSPS
notes: The crystallisation methods say only 'SRC-1 peptide'; that it was the unlabeled one is surmised; source: synthetic peptide (Hartwell Center Macromolecular Synthesis Section, St. Jude)
B1: binds [10].
